# Results taken from patent publication US4845219A, “Nitrogen- and sulfur-containing lipid compounds their production and use” (Takeda Chemical Industries, Ltd., priority 1986, dated 1989).
# Counter-ions that a name gives are not always drawn.
# How the values were obtained:
# MM46 cells = test: Life-span prolongation of MM46-inoculated C3H/He mice (Test Example 2); type: in vivo; details: MM46 1×10^4 cells/mouse i.p.; for Life-Span Prolongation Ratio (T/C, %): 0.25 mg/mouse i.p. for consecutive 4 days from second day after inoculation, only mice of survival days less than 60 days, control = 100; for No. of survivors/No. of tested mice: 0.25 mg/mouse i.p. for consecutive 4 days, 60th day, control 0/5
# Procedure: C3H/He mice (a group consisting of five mice) were inoculated intraperitoneally with 1×10^4 MM46 cells per mouse, and each mouse was intraperitoneally given 0.25 mg of drug for consecutive 4 days, starting from the second day after the inoculation. Shown in Table 2 are the life-span prolongation ratio ragarding the died mice in the group treated with drug against those in the control group not treated with drug (only related to mice of survival days less than 60 days) and the number of survived mice on the 60th day after the inoculation of MM46.
# platelets = details: literature; cited from earlier work
# [1] = literature; cited from earlier work
# Sarcoma 180 cells = test: Life-span prolongation of Sarcoma 180-inoculated ICR mice (Test Example 1); type: in vivo; details: Sarcoma 180 1×10^5 cells/mouse i.p.; for Life-Span Prolongation Ratio (T/C, %): 0.33 mg/mouse i.p. three times (1 hour, 1 day, 2 days after inoculation), only mice of survival days less than 60 days, control = 100; for 60th day: No. of survivors/No. of tested mice: 0.33 mg/mouse i.p. three times, control 0/5
# Procedure: ICR mice (a group consisting of five mice) were inoculated intraperitoneally with 1×10^5 Sarcoma 180 cells per mouse, and then given intraperitoneally 0.33 mg/mouse of the compound prepared in the present invention dissolved in physiological saline, three times in total, 1 hour, 1 day and 2 days after the inoculation. Also, the control compound [III] was given to mice under the same conditions. Shown in Table 1 are the life-span prolongation ratio against the control group not treated with drug (only related to mice of survival days less than 60 days) and the number of survived mice on the 60th day after the initiation of the test.
# tumor cells = details: compound [III], literature; cited from earlier work
# [2] = test system: human myelogenic leukaemia cells HL-60; test: Proliferation inhibiting activity against HL-60 (Test Example 3); type: cell-based; details: HL-60 cells, read-out: Inhibitory concentration against HL-60 (IC50, μg/ml)
# Procedure: Proliferation inhibiting activity (IC50) of the compound of the present invention againsts human myelogenic leukaemia cells HL-60 was measured according to the method of R. Gallo et al [Blood, vol.
# [3] = test system: platelet aggregation by PAF, washed PRP; test: PAF inhibiting activity in platelet aggregation (Test Example 4); type: cell-based; details: Oryctolagus cuniculus, PAF 3×10^-7 M, rabbit washed PRP, 37° C., relative to maximum aggregation of control PRP by PAF, read-out: Inhibiting Ratio; for inhibition at 30 µM: medicine concentration 3 × 10^-5 M; for inhibition at 3 µM: medicine concentration 3 × 10^-6 M
# Procedure: Using a syringe containing 3.15% citric acid (1 part per 9 parts of blood) as a blood coagulation inhibitor, blood was taken from male rabbit. The blood was then centrifuged at 1000 rpm at room temperature for 10 minutes to obtain a platelet rich plasma (PRP). This PRP was further centrifuged at 1400 rpm for 15 minutes to obtain a platelet pellet. The pellet was suspended in Ca^++ -free Tyrode containing 0.25% gelatin to obtain washed PRP. This PRP (250 μl) was stirred at 37° C. for 2 minutes, to which was then added 25 μl of a 0.2-0.5 mM Ca^++ solution. After this mixture had been stirred for 30 seconds, a medicine to be tested was added thereto. After 2 minutes stirring, 3×10^-7 M of PAF was added to the mixture. Pellet aggregation was measured by means of a platelet aggregometer (manufactured by Rika Denki, Japan). The activity of the test samples was determined in terms of an inhibiting ratio relative to the maximum transmittance (maximum aggregation ratio) of control PRP by PAF.
Structure (SMILES),"Life-Span Prolongation Ratio (T/C, %) (MM46 cells)",No. of survivors/No. of tested mice (MM46 cells),platelet activating / aggregating activity (platelets),hypotensive and other side-effect activity [1],"Life-Span Prolongation Ratio (T/C, %) (Sarcoma 180 cells)",60th day: No. of survivors/No. of tested mice (Sarcoma 180 cells),anti-tumor activity (tumor cells),IC50 [2],inhibition at 30 µM [3],inhibition at 3 µM [3]
"CCCCCCCCCCCCCCCCCCOCC(COP(=O)([O-])OCC[N+](C)(C)C)OC (centres unmarked) [Compound [III], reference compound]",155%,0/5,platelet activating property,hypotensive activity and local stimulating activity,162%,0/5,anti-tumor activity,–,–,–
"CCCCCCCCCCCCCCCCCCOCC(CS(=O)(=O)CCC[N+](C)(C)C)OC.CS(=O)(=O)[O-] (centres unmarked) [Example 30, 3-[(2-methoxy-3-octadecyloxypropyl)sulfonyl]propyltrimethylammonium mesylate]",225%,4/5,–,–,350%,0/5,–,1.25 µg/mL,–,–
"CCCCCCCCCCCCCCCCCCOCC(CS(=O)(=O)CCCCCC[N+](C)(C)C)OC.CS(=O)(=O)[O-] (centres unmarked) [Example 31, 6-[(2-methoxy-3-octadecyloxypropyl)sulfonyl]hexyltrimethylammonium mesylate]",–,–,–,–,273%,0/5,–,5 µg/mL,100%,100%
"CCCCCCCCCCCCCCCCCCOCC(CCS(=O)(=O)CCC[N+](C)(C)C)OC.CS(=O)(=O)[O-] (centres unmarked) [Example 36, 3-[(3-methoxy-4-octadecyloxybutyl)sulfonyl]propyltrimethylammonium mesylate]",–,–,–,–,242%,1/5,–,2.5 µg/mL,–,–
"CCCCCCCCCCCCCCCCCCOCC(CC[S+]([O-])CCC[N+](C)(C)C)OC.CS(=O)(=O)[O-] (centres unmarked) [Example 37, 3-[(3-methoxy-4-octadecyloxybutyl)sulfinyl]propyltrimethylammonium mesylate]",–,–,–,–,326%,0/5,–,2.5 µg/mL,–,–
"CCCCCCCCCCCCCCCCCCOCC(CSCCC[N+](C)(C)C)OC.CS(=O)(=O)[O-] (centres unmarked) [Example 38, 3-[(2-methoxy-3-octadecyloxypropyl)thio]propyltrimethylammonium mesylate]",–,–,–,–,–,–,–,5 µg/mL,–,–
"CCCCCCCCCCCCCCCCCCOCC(CS(=O)(=O)CCC[n+]1ccccc1)OC (centres unmarked) [Example 45, N[3-((2-Methoxy-3-octadecyloxypropyl)sulfony)propyl]pyridinium mesylate]",–,–,–,–,–,–,–,1.25 µg/mL,100%,82%
"CCCCCCCCCCCCCCCCCCNC(=O)OCC(CS(=O)(=O)CCC[n+]1ccccc1)OC (centres unmarked) [Example 46, N-[3-((2-Methoxy-3-octadecylcarbamoyloxypropyl)sulfonyl)propyl]-pyridinium mesylate]",–,–,–,–,–,–,–,–,100%,100%
"CCCCCCCCCCCCCCCCCCOCC(CCS(=O)(=O)CCC[n+]1ccccc1)OC.CS(=O)(=O)[O-] (centres unmarked) [Example 47, N-[3-((3-Methoxy-4-octadecyloxybutyl)sulfonyl)propyl]pyridinium mesylate]",–,–,–,–,–,–,–,1.25 µg/mL,100%,73%
"CCCCCCCCCCCCCCCCCCOCC(CCS(=O)(=O)CCC[n+]1ccsc1)OC.CS(=O)(=O)[O-] (centres unmarked) [Example 48, N-[3-((3-Methoxy-4-octadecyloxybutyl)sulfonyl)propyl]thiazolium mesylate]",–,–,–,–,–,–,–,2.5 µg/mL,100%,65%
